The record followed here is PubChem BioAssay AID602480 (National Center for Advancing Translational Sciences (NCATS), 2012).

Values after ≈ are worked out from the molar mass of the structure shown.

The data set deals with aqueous solubility in PBS. Kind of data set: qHTS Assay for Inhibitors of Bacillus subtilis Sfp phosphopantetheinyl transferase (PPTase): Aqueous Solubility in PBS. The source says:
PPTases are responsible for the activation of a variety of pathogen-associated virulence factors. Among these compounds are toxins such as mycolactone from Mycobacterium ulcerans, siderophores such as vibriobactin from Vibrio cholerae or mycobactin from Mycobacterium tuberculosis, as well as the mycolic acids which form the waxy cell wall of Mycobacteria. The biosyntheses of these natural products are considered attractive targets for drug design. After a large qHTS and several follow-up assays, a small molecule was identified and this in vitro ADME assay serves to better characterize its properties.
This profiling assay looks at the […] of a small molecule in PBS (pH 7.4). This is an important parameter as it has significant impact on in vivo results, such as uptake, distribution, transport, and eventually bioavailability. This outcome is also of utmost importance for decisions concerning assay data and SAR strategy.
NIH Chemical Genomics Center [NCGC]
NIH Molecular Libraries Probe Centers Network [MLPCN]
Assay Submitter (PI): Michale Burkart, University of California, San Diego
1. 8ul of reference and test compound stock solution were added to 392ul 100mM phosphate buffer (pH 7.4)
2. Sample tubes were shaken for 1 hr (1000 rpm) at room temperature
3. […]
5. Concentration of the supernatant was determined by LC-UV or LC-MS/MS

As to `COc1ccnc(NC(=S)N2CCN(c3ncc(C(F)(F)F)cc3Cl)CC2)c1`, the solubility is 20 µM (≈ 8.64 µg/mL).
